Experiments:
Hepatotoxicity [1] = system: Hepatotoxicity;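 for HepSE bilirubinemia: bilirubinemia hepatic side effect score drawn from the DILIps training data, a prediction system for drug-induced liver injury; call rule not given here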;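 for HepSE cholecystitis: Cholecystitis-related hepatic side effect score drawn from the DILIps (drug-induced liver injury prediction) training data set; call rule not given here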;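 for HepSE cholelithiasis: hepatic side effect score for cholelithiasis, drawn from the DILIps training data for predicting drug-induced liver injury; call rule not given here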;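 for HepSE cirrhosis: cirrhosis hepatic side effect score taken from the DILIps (drug-induced liver injury prediction) training set; call rule not given here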;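 for HepSE elevated liver function tests: hepatic side effect score for raised liver function tests, as recorded in the DILIps training set used for predicting drug-induced liver injury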; for HepSE hepatic failure: call rule not given here;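 for HepSE hepatomegaly: hepatic side effect score for hepatomegaly, taken from the training set of the DILIps drug-induced liver injury prediction system; call rule not given here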
Hepatotoxicity [2] = system: Hepatotoxicity; remark: listed apart in the source;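 for HepSE bilirubinemia: bilirubinemia hepatic side effect score drawn from the DILIps training data, a prediction system for drug-induced liver injury; call rule not given here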;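 for HepSE cholecystitis: Cholecystitis-related hepatic side effect score drawn from the DILIps (drug-induced liver injury prediction) training data set; call rule not given here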;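 for HepSE cholelithiasis: hepatic side effect score for cholelithiasis, drawn from the DILIps training data for predicting drug-induced liver injury; call rule not given here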;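 for HepSE cirrhosis: cirrhosis hepatic side effect score taken from the DILIps (drug-induced liver injury prediction) training set; call rule not given here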;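 for HepSE elevated liver function tests: hepatic side effect score for raised liver function tests, as recorded in the DILIps training set used for predicting drug-induced liver injury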; for HepSE hepatic failure: call rule not given here
Hepatotoxicity [3] = system: Hepatotoxicity; remark: listed apart in the source;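 for HepSE bilirubinemia: bilirubinemia hepatic side effect score drawn from the DILIps training data, a prediction system for drug-induced liver injury; call rule not given here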;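 for HepSE cholecystitis: Cholecystitis-related hepatic side effect score drawn from the DILIps (drug-induced liver injury prediction) training data set; call rule not given here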;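 for HepSE cholelithiasis: hepatic side effect score for cholelithiasis, drawn from the DILIps training data for predicting drug-induced liver injury; call rule not given here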;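 for HepSE cirrhosis: cirrhosis hepatic side effect score taken from the DILIps (drug-induced liver injury prediction) training set; call rule not given here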;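 for HepSE elevated liver function tests: hepatic side effect score for raised liver function tests, as recorded in the DILIps training set used for predicting drug-induced liver injury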; for HepSE hepatic failure: call rule not given here
Hepatotoxicity [4] = system: Hepatotoxicity; remark: listed apart in the source;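 for HepSE bilirubinemia: bilirubinemia hepatic side effect score drawn from the DILIps training data, a prediction system for drug-induced liver injury; call rule not given here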;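 for HepSE cholecystitis: Cholecystitis-related hepatic side effect score drawn from the DILIps (drug-induced liver injury prediction) training data set; call rule not given here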;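 for HepSE cholelithiasis: hepatic side effect score for cholelithiasis, drawn from the DILIps training data for predicting drug-induced liver injury; call rule not given here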;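 for HepSE cirrhosis: cirrhosis hepatic side effect score taken from the DILIps (drug-induced liver injury prediction) training set; call rule not given here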;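 for HepSE elevated liver function tests: hepatic side effect score for raised liver function tests, as recorded in the DILIps training set used for predicting drug-induced liver injury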; for HepSE hepatic failure: call rule not given here
Hepatotoxicity [5] = system: Hepatotoxicity; remark: listed apart in the source; for HepSE hepatic failure: call rule not given here
Hepatotoxicity [6] = system: Hepatotoxicity; remark: listed apart in the source; for HepSE hepatic failure: call rule not given here
Hepatotoxicity [7] = system: Hepatotoxicity; remark: listed apart in the source
Hepatotoxicity [8] = system: Hepatotoxicity; remark: listed apart in the source
Hepatotoxicity [9] = system: Hepatotoxicity; remark: listed apart in the source
Hepatotoxicity [10] = system: Hepatotoxicity; remark: listed apart in the source
Hepatotoxicity [11] = system: Hepatotoxicity; remark: listed apart in the source
Hepatotoxicity [12] = system: Hepatotoxicity; remark: listed apart in the source
Hepatotoxicity [13] = system: Hepatotoxicity; remark: listed apart in the source
Hepatotoxicity [14] = system: Hepatotoxicity; remark: listed apart in the source

SMILES | HepSE_bilirubinemia (Hepatotoxicity [1]) | HepSE_cholecystitis (Hepatotoxicity [2]) | HepSE_cholelithiasis (Hepatotoxicity [3]) | HepSE_cirrhosis (Hepatotoxicity [4]) | HepSE_elevated liver function tests (Hepatotoxicity [5]) | HepSE_hepatic failure (Hepatotoxicity [6]) | HepSE_hepatic necrosis (Hepatotoxicity [7]) | HepSE_hepatitis (Hepatotoxicity [8]) | HepSE_hepatomegaly (Hepatotoxicity [9]) | HepSE_jaundice (Hepatotoxicity [10]) | HepSE_liver disease (Hepatotoxicity [11]) | HepSE_liver fatty (Hepatotoxicity [12]) | HepSE_liver function tests abnormal (Hepatotoxicity [13]) | HepSE_Combined Scores (Hepatotoxicity [14]) | other results
CC(=O)N[C@@H](CS)C(=O)O [ACETYLCYSTEINE] | 0 | 0 | 0 | 0 | 0 | 0 | 0 | 0 | 0 | 0 | 0 | 0 | 0 | 0 | 
COc1cc(C)c(/C=C/C(C)=C/C=C/C(C)=C/C(=O)O)c(C)c1C [ACITRETIN] | 0 | 0 | 0 | 0 | 1 | 0 | 0 | 1 | 0 | 1 | 0 | 0 | 0 | 3 | 
Nc1nc2c(ncn2COCCO)c(=O)[nH]1 [ACYCLOVIR] | 1 | 0 | 0 | 0 | 1 | 0 | 0 | 1 | 0 | 1 | 0 | 0 | 0 | 4 | 
CC(C)(C)C(=O)OCOP(=O)(COCCn1cnc2c(N)ncnc21)OCOC(=O)C(C)(C)C [ADEFOVIR DIPIVOXIL] | 0 | 0 | 0 | 0 | 0 | 1 | 0 | 0 | 0 | 0 | 0 | 0 | 0 | 1 | 
Nc1ncnc2c1ncn2[C@@H]1O[C@H](CO)[C@@H](O)[C@H]1O [ADENOSINE] | 0 | 0 | 0 | 0 | 0 | 0 | 0 | 0 | 0 | 0 | 0 | 0 | 0 | 0 | 
CCCSc1ccc2nc(NC(=O)OC)[nH]c2c1 [ALBENDAZOLE] | 0 | 0 | 0 | 0 | 0 | 1 | 0 | 1 | 0 | 0 | 1 | 0 | 0 | 3 | 
CC(C)(C)NCC(O)c1ccc(O)c(CO)c1 (configuration not stated) [ALBUTEROL] |  |  |  |  |  |  |  |  |  |  |  |  |  |  | HepSE_bilirubinemia (Hepatotoxicity [1]; Liver): 0; HepSE_cholecystitis (Hepatotoxicity [2]; Liver): 0; HepSE_cholelithiasis (Hepatotoxicity [3]; Liver): 0; HepSE_cirrhosis (Hepatotoxicity [4]; Liver): 0; HepSE_elevated liver function tests (Hepatotoxicity [5]; Liver): 0; HepSE_hepatic failure (Hepatotoxicity [6]; Liver): 0; HepSE_hepatic necrosis (Hepatotoxicity [7]; Liver): 0; HepSE_hepatitis (Hepatotoxicity [8]; Liver): 0; HepSE_hepatomegaly (Hepatotoxicity [9]; Liver): 0; HepSE_jaundice (Hepatotoxicity [10]; Liver): 0; HepSE_liver disease (Hepatotoxicity [11]; Liver): 0; HepSE_liver fatty (Hepatotoxicity [12]; Liver): 0; HepSE_liver function tests abnormal (Hepatotoxicity [13]; Liver): 0; HepSE_Combined Scores (Hepatotoxicity [14]; Liver): 0
C[C@@H]1C[C@H]2[C@H]3[C@H]([C@@H](O)C[C@]2(C)[C@@]1(O)C(=O)CO)[C@@]1(C)C=CC(=O)C=C1C[C@H]3Cl [ALCLOMETASONE] | 0 | 0 | 0 | 0 | 0 | 0 | 0 | 0 | 0 | 0 | 0 | 0 | 0 | 0 | 
COc1cc2nc(N(C)CCCNC(=O)C3CCCO3)nc(N)c2cc1OC (configuration not stated) [ALFUZOSIN] | 0 | 0 | 0 | 0 | 0 | 0 | 0 | 0 | 0 | 1 | 1 | 0 | 0 | 2 | 
Oc1ncnc2[nH]ncc12 [ALLOPURINOL] | 1 | 0 | 0 | 0 | 0 | 0 | 1 | 1 | 1 | 1 | 0 | 0 | 0 | 5 | 
CN(C)CCc1c[nH]c2ccc(CS(=O)(=O)N3CCCC3)cc12 [ALMOTRIPTAN] | 0 | 0 | 0 | 0 | 0 | 0 | 0 | 0 | 0 | 0 | 0 | 0 | 0 | 0 | 
Cc1[nH]cnc1CN1CCc2c(c3ccccc3n2C)C1=O [ALOSETRON] | 0 | 1 | 0 | 0 | 0 | 0 | 0 | 1 | 0 | 1 | 0 | 0 | 0 | 3 | 
Cc1nnc2n1-c1ccc(Cl)cc1C(c1ccccc1)=NC2 [ALPRAZOLAM] | 0 | 0 | 0 | 0 | 0 | 1 | 0 | 1 | 0 | 1 | 0 | 0 | 0 | 3 | 
CCCCC[C@H](O)/C=C/[C@H]1[C@H](O)CC(=O)[C@@H]1CCCCCCC(=O)O [ALPROSTADIL] | 1 | 0 | 0 | 0 | 0 | 0 | 0 | 0 | 0 | 0 | 0 | 0 | 0 | 1 | 
NC12CC3CC(CC(C3)C1)C2 [AMANTADINE] | 0 | 0 | 0 | 0 | 0 | 0 | 0 | 0 | 0 | 0 | 0 | 0 | 0 | 0 | 
CC[N+](CC)(CCNC(=O)C(=O)NCC[N+](CC)(CC)Cc1ccccc1Cl)Cc1ccccc1Cl [AMBENONIUM] | 0 | 0 | 0 | 0 | 0 | 0 | 0 | 0 | 0 | 0 | 0 | 0 | 0 | 0 | 
COC(c1ccccc1)(c1ccccc1)[C@H](Oc1nc(C)cc(C)n1)C(=O)O [AMBRISENTAN] | 0 | 0 | 0 | 0 | 0 | 0 | 0 | 0 | 0 | 0 | 0 | 0 | 0 | 0 | 
CC(=O)OCC(=O)[C@@]12OC3(CCCC3)O[C@@H]1C[C@H]1[C@@H]3CCC4=CC(=O)C=C[C@]4(C)[C@@]3(F)[C@@H](O)C[C@@]12C [AMCINONIDE] | 0 | 0 | 0 | 0 | 0 | 0 | 0 | 0 | 0 | 0 | 0 | 0 | 0 | 0 | 

From ChEMBL document CHEMBL1909294, “Translating clinical findings into knowledge in drug safety evaluation--drug induced liver injury prediction system (DILIps)” (PLoS Comput Biol, 2011)
